Assay results taken from patent US7271165B2, “Rifamycin analogs and uses thereof” (priority 2003, dated 2007).
Converted amounts (≈) assume the structure as drawn.

Key:
[1] = tested on: S. aureus; test: MIC assay, S. aureus; type: cell-based, Staphylococcus aureus
[2] = tested on: H. flu; type: cell-based, H. influenza; conditions: H. flu
[3] = tested on: E. faecalis; test: MIC assay, E. faecalis; type: cell-based, Enterococcus faecalis
[4] = tested on: S. pneumo.; test: MIC assay, S. pneumo.; type: cell-based, Streptococcus pneumoniae
[5] = tested on: E coli; test: MIC assay, E coli; type: cell-based

Compound | MIC (μg/mL) S. aureus [1] | MIC (μg/mL) H. flu [2] | MIC (μg/mL) E. faecalis [3] | MIC (μg/mL) S. pneumo. [4] | MIC (μg/mL) E coli [5]
COC1C=COC2(C)Oc3c(C)c(O)c4c(=O)c(c5sc6cc(N7CCC(N(C)C)CC7)ccc6nc-5c4c3C2=O)NC(=O)C(C)=CC=CC(C)C(O)C(C)C(O)C(C)C(OC(C)=O)C1C (centres unmarked) [Compound 69, 5′-[4-N,N-dimethylamino-1-piperidinyl]benzthiazinorifamycin] | 0.015 µg/mL (≈ 0.0162 µM) | 0.5 µg/mL (≈ 0.539 µM) | 0.5 µg/mL (≈ 0.539 µM) | 0.00025 µg/mL (≈ 0.00027 µM) | 4 µg/mL (≈ 4.31 µM)
COC1C=COC2(C)Oc3c(C)c(O)c4c(=O)c(c5sc6cc(N7CC(C)N(CC8CC8)CC7C)ccc6nc-5c4c3C2=O)NC(=O)C(C)=CC=CC(C)C(O)C(C)C(O)C(C)C(O)C1C [Compound 70, 25-O-deacetyl-5′-[(2S,5R)-4-(cyclopropylmethyl)-2,5-dimethylpiperazinyl]benzthiazinorifamycin] | 0.03 µg/mL (≈ 0.0324 µM) | 1 µg/mL (≈ 1.08 µM) | 1 µg/mL (≈ 1.08 µM) | 0.001 µg/mL (≈ 0.00108 µM) | >8 µg/mL
COC1C=COC2(C)Oc3c(C)c(O)c4c(=O)c(c5oc6cc(N7CCC(C)(N(C)C)CC7)cc(O)c6nc-5c4c3C2=O)NC(=O)C(C)=CC=CC(C)C(O)C(C)C(O)C(C)C(OC(C)=O)C1C (centres unmarked) [Compound 71, 3′-hydroxy-5′-[4-methyl-4-N,N-dimethylamino-1-piperidinyl]benzoxazinorifamycin] | 0.008 µg/mL (≈ 0.0085 µM) | 0.5 µg/mL (≈ 0.531 µM) | 0.25 µg/mL (≈ 0.266 µM) | 0.00012 µg/mL (≈ 0.000128 µM) | 4 µg/mL (≈ 4.25 µM)
COC1C=COC2(C)Oc3c(C)c(O)c4c(=O)c(c5oc6cc(N7CCC(C)(NC(C)=O)CC7)cc(O)c6nc-5c4c3C2=O)NC(=O)C(C)=CC=CC(C)C(O)C(C)C(O)C(C)C(OC(C)=O)C1C (centres unmarked) [Compound 72, 3′-hydroxy-5′-[4-methyl-4-acetylamino-1-piperidinyl]benzoxazinorifamycin] | 0.008 µg/mL (≈ 0.00838 µM) | 0.5 µg/mL (≈ 0.524 µM) | 2 µg/mL (≈ 2.09 µM) | 0.00025 µg/mL (≈ 0.000262 µM) | >8 µg/mL
COC1C=COC2(C)Oc3c(C)c(O)c4c(=O)c(c5oc6cc(N7CCC(C)(N(C)C)CC7)cc(O)c6nc-5c4c3C2=O)NC(=O)C(C)=CC=CC(C)C(O)C(C)C(O)C(C)C(O)C1C (centres unmarked) [Compound 73, 25-O-deacetyl-3′-hydroxy-5′-[4-methyl-4-N,N-dimethylamino-1-piperidinyl]benzoxazinorifamycin] | 0.002 µg/mL (≈ 0.00222 µM) | 0.12 µg/mL (≈ 0.133 µM) | 0.03 µg/mL (≈ 0.0334 µM) | 0.00025 µg/mL (≈ 0.000278 µM) | 2 µg/mL (≈ 2.22 µM)
COC1C=COC2(C)Oc3c(C)c(O)c4c(=O)c(c5oc6cc(N7CCC(C)(NC(C)=O)CC7)cc(O)c6nc-5c4c3C2=O)NC(=O)C(C)=CC=CC(C)C(O)C(C)C(O)C(C)C(O)C1C (centres unmarked) [Compound 74, 25-O-deacetyl-3′-hydroxy-5′-[4-methyl-4-acetylamino-1-piperidinyl]benzoxazinorifamycin] | 0.03 µg/mL (≈ 0.0329 µM) | 0.12 µg/mL (≈ 0.131 µM) | 0.5 µg/mL (≈ 0.548 µM) | 0.001 µg/mL (≈ 0.0011 µM) | >8 µg/mL
COC1C=COC2(C)Oc3c(C)c(O)c4c(=O)c(c5oc6cc(N7CCC(N(C)C)C7)cc(O)c6nc-5c4c3C2=O)NC(=O)C(C)=CC=CC(C)C(O)C(C)C(O)C(C)C(OC(C)=O)C1C [Compound 75, 3′-hydroxy-5′-[(3R)—N,N-dimethylamino-1-pyrrolidinyl]benzoxazinorifamycin] | 0.002 µg/mL (≈ 0.00219 µM) | 0.25 µg/mL (≈ 0.274 µM) | 0.12 µg/mL (≈ 0.131 µM) | 0.00012 µg/mL (≈ 0.000131 µM) | 4 µg/mL (≈ 4.38 µM)
COC1C=COC2(C)Oc3c(C)c(O)c4c(=O)c(c5sc6cc(N7CCN8CCCC8C7)ccc6nc-5c4c3C2=O)NC(=O)C(C)=CC=CC(C)C(O)C(C)C(O)C(C)C(OC(C)=O)C1C [Compound 76, 5′-[(8aS)octahydropyrrolo [1,2-a]pyrazin-2-yl]benzthiazinorifamycin] | 0.008 µg/mL (≈ 0.00865 µM) | 0.25 µg/mL (≈ 0.27 µM) | 0.5 µg/mL (≈ 0.54 µM) | 0.00025 µg/mL (≈ 0.00027 µM) | 4 µg/mL (≈ 4.32 µM)
COC1C=COC2(C)Oc3c(C)c(O)c4c(=O)c(c5sc6cc(N7CCN8CCCC8C7)ccc6nc-5c4c3C2=O)NC(=O)C(C)=CC=CC(C)C(O)C(C)C(O)C(C)C(O)C1C [Compound 77, 25-O-deacetyl-5′-[(8aS)octahydropyrrolo[1,2-a]pyrazin-2-yl]benzthiazinorifamycin] | 0.002 µg/mL (≈ 0.00226 µM) | 0.12 µg/mL (≈ 0.136 µM) | 0.25 µg/mL (≈ 0.283 µM) | 0.00025 µg/mL (≈ 0.000283 µM) | 2 µg/mL (≈ 2.26 µM)
COC1C=COC2(C)Oc3c(C)c(O)c4c(=O)c(c5oc6cc(N7CCN(C)CC7)cc(O)c6nc-5c4c3C2=O)NC(=O)C(C)=CC=CC(C)C(O)C(C)C(O)C(C)C(O)C1C (centres unmarked) [Compound 82] | 0.002 µg/mL (≈ 0.00233 µM) | 0.25 µg/mL (≈ 0.292 µM) | 0.015 µg/mL (≈ 0.0175 µM) | 0.00012 µg/mL (≈ 0.00014 µM) | 4 µg/mL (≈ 4.67 µM)
COC1C=COC2(C)Oc3c(C)c(O)c4c(=O)c(c5oc6cc(N7CCN8CCCC8C7)cc(O)c6nc-5c4c3C2=O)NC(=O)C(C)=CC=CC(C)C(O)C(C)C(O)C(C)C(O)C1C (centres unmarked) [Compound 83] | 0.002 µg/mL (≈ 0.00226 µM) | 0.25 µg/mL (≈ 0.283 µM) | 0.03 µg/mL (≈ 0.034 µM) | 0.00025 µg/mL (≈ 0.000283 µM) | 4 µg/mL (≈ 4.53 µM)
COC1C=COC2(C)Oc3c(C)c(O)c4c(=O)c(c5oc6cc(N7CCN8CCCC8C7)cc(O)c6nc-5c4c3C2=O)NC(=O)C(C)=CC=CC(C)C(O)C(C)C(O)C(C)C(O)C1C (centres unmarked) [Compound 84] | 0.004 µg/mL (≈ 0.00453 µM) | 0.25 µg/mL (≈ 0.283 µM) | 0.03 µg/mL (≈ 0.034 µM) | 0.00025 µg/mL (≈ 0.000283 µM) | 8 µg/mL (≈ 9.06 µM)
COC1C=COC2(C)Oc3c(C)c(O)c4c(=O)c(c5oc6cc(N7CCN(Cc8ccccc8)CC7)cc(O)c6nc-5c4c3C2=O)NC(=O)C(C)=CC=CC(C)C(O)C(C)C(O)C(C)C(O)C1C (centres unmarked) [Compound 86] | 0.03 µg/mL (≈ 0.0322 µM) | 8 µg/mL (≈ 8.57 µM) | >8 µg/mL | 0.001 µg/mL (≈ 0.00107 µM) | >8 µg/mL
